What all share (assay): Kinase panel profiling at 1 µmol/L (MSA or IMAP), percentage inhibition
Common to all, as to format: biochemical

The target of assay [1] is panel of 255 wild-type kinases (Homo sapiens, UniProt P05129). Conditions: read-out: %-inhibition at 1 µmol/L, PKCγ.
Assay [2] has as its target panel of 255 wild-type kinases (Homo sapiens, UniProt P06241). Conditions: read-out: %-inhibition at 1 µmol/L, FYN [isoform a].
Assay [3] deals with panel of 255 wild-type kinases (Homo sapiens, UniProt P06493). Conditions: read-out: %-inhibition CDC2/CycB1.
Assay [4] deals with panel of 255 wild-type kinases (Homo sapiens, UniProt P07332). The conditions noted are these: read-out: %-inhibition at 1 µmol/L, FES.
Assay [5] has as its target panel of 255 wild-type kinases (Homo sapiens, UniProt P07948). The conditions noted are these: read-out: %-inhibition at 1 µmol/L, LYNa.
Assay [6] has as its target panel of 255 wild-type kinases (Homo sapiens, UniProt P08581). Conditions: MET; 1 µmol/L single concentration.
Assay [7] deals with panel of 255 wild-type kinases (Homo sapiens, UniProt P41240). Conditions: read-out: %-inhibition at 1 µmol/L, CSK.
Assay [8] concerns the target T1, panel of 255 wild-type kinases (Homo sapiens, UniProt P42680).
T1 sequence (P42680 1-631): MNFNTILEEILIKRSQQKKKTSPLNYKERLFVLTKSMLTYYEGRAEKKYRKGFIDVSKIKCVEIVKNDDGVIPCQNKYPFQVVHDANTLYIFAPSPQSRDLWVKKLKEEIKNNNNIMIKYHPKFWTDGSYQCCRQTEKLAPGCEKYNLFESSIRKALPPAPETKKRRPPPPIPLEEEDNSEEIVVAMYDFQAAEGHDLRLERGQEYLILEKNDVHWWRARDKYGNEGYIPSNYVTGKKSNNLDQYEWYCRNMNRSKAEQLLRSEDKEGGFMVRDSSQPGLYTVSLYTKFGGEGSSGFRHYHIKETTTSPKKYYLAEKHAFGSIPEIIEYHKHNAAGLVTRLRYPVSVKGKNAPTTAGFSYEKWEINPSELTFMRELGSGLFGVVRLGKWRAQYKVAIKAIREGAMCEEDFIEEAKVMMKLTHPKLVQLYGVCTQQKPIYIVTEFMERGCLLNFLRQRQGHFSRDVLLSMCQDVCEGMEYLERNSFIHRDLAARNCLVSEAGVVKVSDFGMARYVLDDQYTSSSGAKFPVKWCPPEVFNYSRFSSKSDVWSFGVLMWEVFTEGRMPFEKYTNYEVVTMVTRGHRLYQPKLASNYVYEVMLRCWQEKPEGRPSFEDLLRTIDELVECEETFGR
Conditions: read-out: %-inhibition at 1 µmol/L, TEC.

Assay [9] concerns the target panel of 255 wild-type kinases (Homo sapiens, UniProt P78368). Conditions: read-out: %-inhibition at 1 µmol/L, CK1γ2.
The target in assay [10] is T2, panel of 255 wild-type kinases (Homo sapiens, UniProt Q16832).
T2 sequence (Q16832 22-855): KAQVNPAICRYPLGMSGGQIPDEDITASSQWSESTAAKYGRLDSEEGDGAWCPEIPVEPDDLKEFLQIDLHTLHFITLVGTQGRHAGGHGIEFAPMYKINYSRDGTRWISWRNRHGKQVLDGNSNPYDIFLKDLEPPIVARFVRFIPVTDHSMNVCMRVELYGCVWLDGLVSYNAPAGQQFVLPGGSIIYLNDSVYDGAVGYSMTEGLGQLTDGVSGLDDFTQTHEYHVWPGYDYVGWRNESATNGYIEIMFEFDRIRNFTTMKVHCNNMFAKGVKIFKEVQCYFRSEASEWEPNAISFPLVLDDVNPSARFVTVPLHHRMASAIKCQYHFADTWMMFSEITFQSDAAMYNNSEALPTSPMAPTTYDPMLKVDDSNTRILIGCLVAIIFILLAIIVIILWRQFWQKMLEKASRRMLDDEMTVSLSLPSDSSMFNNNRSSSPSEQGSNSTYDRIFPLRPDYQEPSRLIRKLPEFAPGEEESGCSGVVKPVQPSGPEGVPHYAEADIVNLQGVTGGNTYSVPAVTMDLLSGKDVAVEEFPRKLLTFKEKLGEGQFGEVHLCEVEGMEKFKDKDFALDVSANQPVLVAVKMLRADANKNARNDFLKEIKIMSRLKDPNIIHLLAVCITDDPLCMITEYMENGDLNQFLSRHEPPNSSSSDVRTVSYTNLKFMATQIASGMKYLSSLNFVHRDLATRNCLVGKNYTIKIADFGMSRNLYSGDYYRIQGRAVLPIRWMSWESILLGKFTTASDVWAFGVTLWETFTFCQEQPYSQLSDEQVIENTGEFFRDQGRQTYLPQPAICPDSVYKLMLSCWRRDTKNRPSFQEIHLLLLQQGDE
Conditions: read-out: %-inhibition at 1 µmol/L, DDR2.

Assay [11] addresses T3, panel of 255 wild-type kinases (Homo sapiens, UniProt Q9HBY8).
T3 sequence (Q9HBY8 1-367): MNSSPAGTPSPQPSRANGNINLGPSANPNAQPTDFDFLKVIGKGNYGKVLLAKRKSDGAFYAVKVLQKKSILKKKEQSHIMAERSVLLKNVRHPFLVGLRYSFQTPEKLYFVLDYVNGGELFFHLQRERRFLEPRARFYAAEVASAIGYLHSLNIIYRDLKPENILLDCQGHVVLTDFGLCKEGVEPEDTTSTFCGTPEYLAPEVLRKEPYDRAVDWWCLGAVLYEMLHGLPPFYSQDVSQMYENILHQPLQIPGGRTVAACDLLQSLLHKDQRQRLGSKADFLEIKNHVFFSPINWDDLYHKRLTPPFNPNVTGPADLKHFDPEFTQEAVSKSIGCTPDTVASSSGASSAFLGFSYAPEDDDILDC
The conditions noted are these: read-out: %-inhibition at 1 µmol/L, SGK2.

Assay [12] addresses panel of 255 wild-type kinases (Homo sapiens, UniProt Q9Y5S2). The conditions noted are these: read-out: %-inhibition, MRCKβ.
Where [13] appears, read: kinase PKCγ, 1 µmol/L single concentration.
[14] abbreviates: kinase FYN [isoform a], 1 µmol/L single concentration.
[15] abbreviates: CDC2/CycB1 kinase assay, 1 µmol/L single concentration.
Where [16] appears, read: kinase FES, 1 µmol/L single concentration.
The mark [17] stands for this setting: kinase LYNa, 1 µmol/L single concentration.
Setting [18] is: kinase CSK, 1 µmol/L single concentration.
[19] abbreviates: kinase TEC, 1 µmol/L single concentration.
Setting [20] is: kinase CK1γ2, 1 µmol/L single concentration.
The mark [21] stands for this setting: kinase DDR2, 1 µmol/L single concentration.
Where [22] appears, read: kinase SGK2, 1 µmol/L single concentration.
Setting [23] is: MRCKβ, 1 µmol/L single concentration.

Like-named read-outs stand apart in the source and are kept apart here.

Turning to `Cc1nc(NC(=O)N2CCC[C@H]2C(N)=O)sc1-c1ccnc(C(C)(C)C(F)(F)F)c1` [alpelisib], the inhibition at 1 µM in [1] (setting [13]) was -1.86%; in assay [2] (setting [14]), 1.52%; in assay [3] (setting [15]), -3.48%; in [4] (setting [16]), -3.47%; in [5] (setting [17]) it was 1.8%; in assay [6] it was -1%. Further, the inhibition at 1 µM in [7] (setting [18]) is -0.289%; in [8] (setting [19]), -0.644%; in assay [9] (setting [20]) it was -1.58%; in [10] (setting [21]), 5.45%; in assay [11] (setting [22]), -2%; in assay [12] (setting [23]), -7%.
With `Cn1cc(-c2cc3c(N4CCN(c5ncc([C@@](C)(N)c6ccc(F)cc6)cn5)CC4)ncnn3c2)cn1` [avapritinib], the inhibition at 1 µM in assay [1] (setting [13]) was -2.11%; in assay [2] (setting [14]), 57%; in assay [3] (setting [15]) it was 3%; in assay [4] (setting [16]), 1.65%; in assay [5] (setting [17]), 87%; in [6], 16%. Moreover, the inhibition at 1 µM in [7] (setting [18]) is 2.57%; in assay [8] (setting [19]) it was 16%; in assay [9] (setting [20]) it was 7%; in assay [10] (setting [21]) it was 98%; in assay [11] (setting [22]), -4.22%; in [12] (setting [23]), 12%.
As for `Cn1cnc2c(F)c(Nc3ccc(Br)cc3F)c(C(=O)NOCCO)cc21` [binimetinib], the inhibition at 1 µM amounted to 0.893% in assay [1] (setting [13]); 3.76% in [2] (setting [14]); 2.36% in assay [3] (setting [15]); 6% in assay [4] (setting [16]); 3.76% in assay [5] (setting [17]); 0.851% in [6]. Besides, the inhibition at 1 µM in assay [7] (setting [18]) is -1.11%; in assay [8] (setting [19]) it was 0.674%; in [9] (setting [20]) it was -0.416%; in assay [10] (setting [21]), -10%; in assay [11] (setting [22]) it was -0.294%; in [12] (setting [23]), 1.58%.
Regarding `CNC(=O)c1ccc(-c2cnc3ncc(Cc4ccc5ncccc5c4)n3n2)cc1F` [capmatinib], the inhibition at 1 µM in assay [1] was 0.161%; in assay [2] it was -2%; in [3], 2%; in [4], -2%; in [5], 1.12%; in assay [7], -9%. The inhibition at 1 µM was 4% in [8]; -10% in [9]; -1% in assay [10]; -5.54% in [11]; -1.73% in assay [12].
Turning to `COc1cc2ncnc(Nc3ccc(F)c(Cl)c3)c2cc1NC(=O)/C=C/CN1CCCCC1` [dacomitinib], the inhibition at 1 µM in assay [1] (setting [13]) was 4%; in assay [2] (setting [14]), 32%; in [3] (setting [15]), -6%; in [4] (setting [16]), 1.56%; in assay [5] (setting [17]), 79%; in assay [6] it was 24%. For the same compound, the inhibition at 1 µM in assay [7] (setting [18]) is 18%; in [8] (setting [19]) it was 20%; in [9] (setting [20]), -1.63%; in [10] (setting [21]), 93%; in [11] (setting [22]) it was -9%; in [12] (setting [23]), 8%.
As to `C[C@H]1Oc2cc(cnc2N)-c2c(nn(C)c2C#N)CN(C)C(=O)c2ccc(F)cc21` [lorlatinib], the inhibition at 1 µM in assay [1] (setting [13]) was -3.74%; in assay [2] (setting [14]) it was 15%; in assay [3] (setting [15]), 3.16%; in assay [5] (setting [17]), 21%; in assay [6], 4.66%; in assay [7] (setting [18]) it was 1.12%. In addition, the inhibition at 1 µM in assay [8] (setting [19]) was 3%; in assay [9] (setting [20]), 2.14%; in assay [10] (setting [21]), 21%; in assay [11] (setting [22]) it was 4.34%; in assay [12] (setting [23]) it was 2.78%.
Take `FC(F)(F)c1ccc(CNc2ccc(Cc3c[nH]c4ncc(Cl)cc34)cn2)cn1` [pexidartinib]: the inhibition at 1 µM in assay [1] (setting [13]) was 4.68%; in assay [2] (setting [14]), -9%; in assay [3] (setting [15]), 32%; in assay [4] (setting [16]), 27%; in assay [5] (setting [17]), 24%; in assay [7] (setting [18]), 9%. The inhibition at 1 µM in assay [8] (setting [19]) is -0.0585%; in assay [9] (setting [20]), -0.864%; in [10] (setting [21]), 90%; in assay [11] (setting [22]) it was 8%; in assay [12] (setting [23]), 2.43%.
Regarding `C=CC(=O)N1CCC([C@@H]2CCNc3c(C(N)=O)c(-c4ccc(Oc5ccccc5)cc4)nn32)CC1` [zanubrutinib], the inhibition at 1 µM in assay [1] (setting [13]) is -2.24%; in assay [3] (setting [15]) it was -7%; in assay [4] (setting [16]), 1.42%; in [6], -2.35%; in assay [8], 96%; in assay [9] (setting [20]) it was -7%. The inhibition at 1 µM in assay [10] (setting [21]) is -3.23%; in [11] (setting [22]), -2.33%; in [12] (setting [23]), -1.23%.

The values are drawn from publication PMC9516332 (Frontiers in Oncology, 2022).
